Test results reported in patent publication US20070099877A1, “N-aryl-thienopyrimidin-4-amines and analogs as activators of caspases and inducers of apoptosis and the use thereof” (Cytovia, Inc., priority 2005, published 2007).
Where a name gives a salt, the structure may show the parent alone. Read-outs that look alike come from different tables or passages of the source.

Columns and labels:
Format in all cases: cell-based
[1] = tested on: human B cell lymphoblastoid cell line Ramos; experiment: Caspase cascade activation in Ramos cells; conditions: 48 h, read-out: Caspase Activation Potency EC50 Ramos
[2] = tested on: human breast cancer cell line T-47D; experiment: Caspase cascade activation (DEVD-R110 fluorogenic substrate) in T-47D cells
How it was run: (§1)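 Cells were exposed to compound at 0.016 to 10 μM final for 24 h or 48 h at 37 °C. They were then lysed with 14 μM N-(Ac-DEVD)-N′-ethoxycarbonyl-R110 in lysolecithin/DTT/PIPES buffer pH 7.2 for 3 h at room temperature (ex 485/em 530 nm). EC50 came from a sigmoidal fit of net RFU relative to untreated control.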

[3] = tested on: human colon carcinoma cell line HCT116; experiment: Caspase cascade activation in HCT116 cells; conditions: read-out: Caspase activation Potency EC50 HCT116 (48 h)
How it was run: as §1

[4] = tested on: human Burkitt's lymphoma cell line Namalwa; experiment: Caspase cascade activation in Namalwa cells; conditions: Burkitts lymphoma cell, 48 h, read-out: Caspase Activation Potency EC50 Namalwa
[5] = tested on: breast cancer cell line SKBR3; experiment: Caspase cascade activation in SKBR3 cells; conditions: Homo sapiens, SK-BR-3, 48 h, read-out: Caspase Activation Potency EC50 SKBR3
[6] = tested on: human lymphoma cell line Raji; experiment: Caspase cascade activation in Raji cells; conditions: 48 h, read-out: Caspase Activation Potency EC50 Raji
[7] = tested on: human hepatocellular carcinoma cell line SNU398; experiment: Caspase cascade activation in SNU398 cells; conditions: read-out: Caspase activation Potency EC50 SNU398 (48 h)
How it was run: as §1

[8] = tested on: human breast cancer cell line T-47D; experiment: Inhibition of cell proliferation (GI50, CellTiter-Glo) in T-47D cells; conditions: Table III, T47D cells, 48 h, read-out: GI50 in Cancer Cells T47D
Protocol: (§2) Human breast cancer cell lines T-47D, MX-1 and MDAMB435, human colon cancer cell line HT29, and human lung cancer cell line H1299 were grown and harvested as in Example 75. An aliquot of […] of cells (4.4×10^4 cells/mL) was added to a well of a 96-well microtiter plate containing 5 μL of a 10% DMSO in RPMI-1640 media solution containing 10 nM to 100 μM of N-(2,5-dimethoxyphenyl)-2-methylthieno[3,2-d]pyrimidin-4-amine (1 nM to 10 μM final). An aliquot of 45 μL of cells was added to a well of a 96-well microtiter plate containing 5 μL of a 10% DMSO in RPMI-1640 media solution without compound as the control sample for maximal cell proliferation (Lmax). The samples were mixed by agitation and then incubated at 37° C. for 48 h in a 5% CO2-95% humidity incubator. After incubation, the samples were removed from the incubator and 25 μL of CellTiter-Glo™ reagent (Promega) was added. The samples were mixed by agitation and incubated at room temperature for 10-15 min. Plates were then read using a luminescent plate reader (Model SPECTRAfluor Plus, Tecan) to give Ltest values.
(§3) Baseline for GI50 (dose for 50% inhibition of cell proliferation) of initial cell numbers was determined by adding an aliquot of 45 μL of cells or 45 μL of media, respectively, to wells of a 96-well microtiter plate containing 5 μL of a 10% DMSO in RPMI-1640 media solution. The samples were mixed by agitation and then incubated at 37° C. for 0.5 h in a 5% CO2-95% humidity incubator. After incubation, the samples were removed from the incubator and 25 μL of CellTiter-Glo™ reagent (Promega) was added. The samples were mixed by agitation and incubated at 37° C. for 10-15 min at room temperature in a 5% CO2-95% humidity incubator. Fluorescence was read as above, (LStart) defining luminescence for initial cell number used as baseline in GI50 determinations.
(§4) GI50 (dose for 50% inhibition of cell proliferation) is the concentration where [(LTest−Lstart)/(LMax−Lstart)]=0.5.

[9] = tested on: human breast cancer cell line MX-1; experiment: Inhibition of cell proliferation (GI50) in MX-1 cells; conditions: Table III, MX1 cells, 48 h, read-out: GI50 in Cancer Cells MX1
Protocol: as §2, §3, §4

[10] = tested on: human breast cancer cell line MDAMB435; experiment: Inhibition of cell proliferation (GI50) in MDAMB435 cells; conditions: MDA-MB-435, Table III, 48 h, read-out: GI50 in Cancer Cells MDAMB435
Protocol: as §2, §3, §4

[11] = tested on: human colon cancer cell line HT29; experiment: Inhibition of cell proliferation (GI50) in HT29 cells; conditions: HT-29, Table III, 48 h
Protocol: as §2, §3, §4

[12] = tested on: human lung cancer cell line H1299; experiment: Caspase cascade activation in H1299 cells; conditions: NCI-H1299, 24 h, read-out: Caspase activation Potency EC50 H1299 (24 h)
How it was run: as §1

[13] = tested on: human lung cancer cell line H1299; experiment: Inhibition of cell proliferation (GI50) in H1299 cells; conditions: NCI-H1299, Table III, 48 h
Protocol: as §2, §3, §4

[14] = Homo sapiens, T47D, 24 h, T47D cells, 24 h, read-out: Caspase activation Potency EC50 T47D (24 h)
[15] = Homo sapiens, T47D, 48 h, T-47D cells, 48 h, read-out: Caspase activation Potency EC50 T-47D (48 h)

| EC50 [1] [nM] | EC50 ([2]; T-47D cells, 48 h, hydrochloride, read-out: Caspase activation Potency EC50 T-47D (48 h)) [nM] | EC50 ([3]; 48 h, hydrochloride) [nM] | EC50 [4] [nM] | EC50 [5] [nM] | EC50 [6] [nM] | EC50 ([7]; 48 h, hydrochloride) [nM] | GI50 [8] [nM] | GI50 [9] [nM] | EC50 [2, 14] [nM] | EC50 [2, 15] [nM] | EC50 ([3]; Homo sapiens, HCT-116, 48 h) [nM] | GI50 [10] [nM] | GI50 [11] [nM] | EC50 [12] [nM] | GI50 [13] [nM] | EC50 ([7]; Homo sapiens, SNU-398, 48 h) [nM] | Structure (SMILES) |
| --- | --- | --- | --- | --- | --- | --- | --- | --- | --- | --- | --- | --- | --- | --- | --- | --- | --- |
| 173 | 241 | 433 | 204 | 153 | 399 | 238 |  |  |  |  |  |  |  |  |  |  | COc1cc(Nc2ncnc3ccsc23)cc(N(C)C)c1 [Example 70, N-(3-Dimethylamino-5-methoxyphenyl)thieno[3,2-d]pyrimidin-4-amine hydrochloride] |
|  |  |  |  |  |  |  | 80 | 300 | 65 | 40 | 2330 | 295 | 3550 | 1550 | 1170 | 557 | COc1ccc(OC)c(Nc2nc(C)nc3ccsc23)c1 [Example 1, N-(2,5-Dimethoxyphenyl)-2-methylthieno[3,2-d]pyrimidin-4-amine] |
|  |  |  |  |  |  |  | 200 | 300 | 147 | 296 | > 10000 | > 10000 | > 10000 | > 10000 | > 10000 | > 10000 | COc1ccc(OC)c(Nc2ncnc3sccc23)c1 [Example 5, N-(2,5-Dimethoxyphenyl)thieno[2,3-d]pyrimidin-4-amine hydrochloride] |
|  |  |  |  |  |  |  | > 10000 | > 10000 | > 10000 | > 10000 | > 10000 | > 10000 | > 10000 | > 10000 | > 10000 | > 10000 | COc1ccc(OC)c(Nc2ncnc3scc(C)c23)c1 [Example 6, N-(2,5-Dimethoxyphenyl)-5-methylthieno[2,3-d]pyrimidin-4-amine hydrochloride] |
